Measured values reported in article PMC4636305, “Identification of Small-Molecule Inhibitors against Meso-2, 6-Diaminopimelate Dehydrogenase from Porphyromonas gingivalis” (PLoS ONE, 2015).
≈ marks a conversion by molar mass, not a printed value. Entries after “also recorded” stand apart in the source; their conditions may differ. Like-named read-outs stand apart in the source and are kept apart here. Each block holds one compound with its values, some of them ahead of it. Residues, ends and D or L forms follow the SMILES beside them.

Key:
P. gingivalis cells = assay: SEM analysis of compound exposed cells; assay type: cell-based, Porphyromonas gingivalis; conditions: treated P. gingivalis cells; Compounds 4 and 5 at 5x MIC
Description: Untreated or treated P. gingivalis cells were deposited onto a 0.1 μm disposable Millipore filter to remove medium, and samples were fixed using 2% glutaraldehyde in 0.1 M sodium cacodylate buffer (pH 7.4) for 30 min, followed by 1% osmium tetroxide in 0.1 M sodium cacodylate buffer (pH 7.4). Samples embedded in the filters were then dehydrated in ethanol followed by hexamethyldisilazane (HMDS) and allowed to air-dry. The filters were sectioned and mounted onto stubs and coated with gold for three minutes (EMS– 550 Automated Sputter Coater, Electron Microscopy Sciences, Hatfield, PA). Micrographs were taken at 30,000× total magnification using a Zeiss EVO 50 XVP scanning electron microscope (Carl Zeiss, Peabody, MA).

P. gingivalis [1] = assay: MBC, plating of MIC wells without visible growth; assay type: cell-based, Porphyromonas gingivalis; conditions: for MBC: Porphyromonas gingivalis, 168 h, plated 7 days, anaerobic, n = 3
Description: Samples were plated on tryptic soy agar plates supplemented with 5% sheep blood (Becton, Dickinson, Franklin Lakes, NJ) and incubated at 37°C in anaerobic conditions for 7 days.

P. gingivalis [2] = assay: Time-kill assay; assay type: cell-based, Porphyromonas gingivalis; conditions: for reduction of viable P. gingivalis cell count: 5× MIC
Description: P. gingivalis cells were grown overnight and the following day diluted 1/10 into fresh medium. Cells were allowed to grow to mid-log phase (OD600 ≈ 0.5) then diluted to a final cell suspension of 1×10^5 CFU/ml. Compounds were added at a concentration of 5x the MIC determined from the 96-well broth microdilution assay. Samples were taken at different time intervals (0, 0.25, 0.5, 1, 2, 3, 4, 6 and 24 hours) and plated on tryptic soy agar plates supplemented with 5% sheep blood (Becton, Dickinson, Franklin Lakes, NJ) using an automated Eddy Jet spiral plater (Neutec Group, Farmingdale, NY). Plates were incubated at 37°C in anaerobic conditions for 7 days.

[3] = biological target: Meso-diaminopimelate dehydrogenase (m-Ddh) from P. gingivalis (Porphyromonas gingivalis, UniProt Q7MW40); assay: m-Ddh kinetic assay, inhibitor screening and IC50 determination; assay type: biochemical; conditions: for IC50: 400 μM m-DAP, 180 μM NADP+, pH 10.5, 25°C, three independent experiments; for IC50 with addition of Triton-X 100 versus without: .01% Triton-X 100, test for aggregation-based inhibition; for inhibition at 3000 µM: read-out: % inhibition of enzymatic activity at 3 mM
Description: (§1) The enzymatic activity for m-Ddh was determined by observing the standard oxidative deamination reaction of the substrate meso-diaminopimelate. The reaction contained 400 μM of meso-diaminopimelate (Sigma-Aldrich, St. Louis, MO), 180 μM NADP^+ (Sigma-Aldrich, St. Louis, MO), 200 mM glycine-KCl-KOH buffer (pH 10.5), and the enzyme in a final volume of 1 ml. The reaction was initiated with the addition of NADP^+. The reaction velocity was calculated from the increase in absorbance at 340 nm, spectrophotometrically monitored at 25°C, where one unit of enzyme was defined as the amount of enzyme catalyzing the formation of […] of NADPH per min.
A range of concentrations (0–3 mM) of each small-molecule compound inhibitor were added to the standard reaction and the percent of m-Ddh enzymatic inhibition was measured by the kinetic assay described above. Percent inhibition was determined by the formula: (rateofreactionnoinhibitor)−(rateofreactioninhibitor)/rateofreactionnoinhibitor×100. The concentration of each compound inhibitor which caused 50% enzymatic inhibition (IC50) was calculated using PRISM v6.04 software (Graphpad, San Diego, CA) from three independent experiments.

S. sanguinis = assay: MIC, broth microdilution; assay type: cell-based, Streptococcus sanguinis; conditions: for MIC: Streptococcus sanguinis, S. sanguinis, lacks the target m-Ddh, n = 3; for S. sanguinis MIC relative to MIC of P. gingivalis: selectivity
P. gingivalis [4] = assay: MIC, broth microdilution; assay type: cell-based, Porphyromonas gingivalis
Description: Minimal Inhibitory Concentration (MIC) assays were performed using a broth microdilution method. P. gingivalis cells were grown overnight and the following day diluted 1/10 into fresh medium. Cells were allowed to grow to mid-log phase (OD600 ≈ 0.5). Compounds were serially diluted in 96-well microtiter plates (Jet Biofil, Genesee Scientific, San Diego, CA) and an aliquot of the cell suspension was added to each well with the compound inhibitor sample for a final cell count of 1×10^5 CFU/ml. Plates were incubated for five days at 37°C in anaerobic conditions.

m-Ddh [5] = system: m-Ddh; design: method as in PMID 21616177; conditions: C. thermocellum m-Ddh; cited from earlier work
m-Ddh [6] = assay: Determination of kinetic parameters of m-Ddh; assay type: biochemical, Porphyromonas gingivalis; conditions: pH 10.5, 25°C, other substrate held at 0.5 mM; for Km: read-out: apparent Km
Description: as §1
Initial velocity measurements for m-DAP and NADP^+ were determined at 25°C in a similar reaction for the standard oxidative deamination reaction assay. The reaction contained 200 mM glycine-KCl-KOH buffer (pH 10.5) with m-DAP as the variable substrate with concentrations between 0.001 mM and 1 mM and NADP^+ held constant at a saturating concentration of 0.5 mM or NADP^+ as the variable substrate with concentrations between 0.01 mM to 1 mM and m-DAP held constant at 0.5 mM. Km and Vmax values were determined through non-linear fitting. All assays were performed in triplicates and non-linear fitting Michaelis-Menten data were calculated from Graphpad Prism version 5.04 (Graphpad, San Diego, CA).

[7] = compound at 3 mM, initial screen
[8] = Porphyromonas gingivalis, 120 h, five days, 37°C, anaerobic, n = 3

Chain of Meso-diaminopimelate dehydrogenase (m-Ddh) from P. gingivalis (Q7MW40 entry or part of it): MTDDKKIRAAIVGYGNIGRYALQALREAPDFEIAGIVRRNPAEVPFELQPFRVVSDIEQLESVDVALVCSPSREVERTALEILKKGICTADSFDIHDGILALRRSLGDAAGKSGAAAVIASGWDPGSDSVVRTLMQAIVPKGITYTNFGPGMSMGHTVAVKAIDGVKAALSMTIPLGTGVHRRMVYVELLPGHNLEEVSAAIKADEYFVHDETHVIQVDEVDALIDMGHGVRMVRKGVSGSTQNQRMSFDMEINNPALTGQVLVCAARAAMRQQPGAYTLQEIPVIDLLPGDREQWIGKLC

SMILES: NC(=O)c1ccc[n+]([C@@H]2O[C@H](COP(=O)([O-])OP(=O)(O)OC[C@H]3O[C@@H](n4cnc5c(N)ncnc54)[C@H](OP(=O)(O)O)[C@@H]3O)[C@@H](O)[C@H]2O)c1 [NADP^+]
- Km (m-Ddh [5]): 90 µM
- Vmax (m-Ddh [6]): 91.95 nmol/s
- Km (m-Ddh [6]): 60 µM

SMILES: N[C@H](CCC[C@H](N)C(=O)O)C(=O)O [m-DAP, meso-diaminopimelate]
- Vmax (m-Ddh [6]): 130.1 nmol/s
- Km (m-Ddh [6]): 370 µM

SMILES: CC1(C)S[C@@H]2[C@H](NC(=O)[C@H](N)c3ccccc3)C(=O)N2[C@H]1C(=O)O [ampicillin, reference compound]
- cellular structure by SEM (P. gingivalis cells): altered morphology

SMILES: N[C@@H](CC(=O)O)C(=O)N[C@@H](Cc1ccccc1)C(=O)O [Compound 10] (H-Asp-Phe-OH)
- inhibition at 3000 µM [3]: 2%

SMILES: O=C(O)CCCC(O)(O)C(=O)O [Compound 11]
- inhibition at 3000 µM [3, 7]: 13%

SMILES: NCc1[nH]cc(CCC(=O)O)c1CC(=O)O [Compound 8]
- % inhibition of enzymatic activity at 3 mM [3, 7]: No inhibition at 3 mM

The next lines start with results.

- MBC to MIC ratio (P. gingivalis [1]): less than 4
- IC50 [3]: 310 ± 23 µM
- IC50 with addition of Triton-X 100 versus without [3]: no difference in activity
- inhibition at 3000 µM [3, 7]: ≥ 90%
- MIC (S. sanguinis): 305 µM (≈ 133 µg/mL)
- S. sanguinis MIC relative to MIC of P. gingivalis (S. sanguinis): almost double
- MIC (P. gingivalis [4]; [8]): 167 µM (≈ 72.9 µg/mL)
- MIC (P. gingivalis [4]; five days, 37°C, anaerobic, n = 3): 167 µM (≈ 72.7 µg/mL)
SMILES: Cc1cc(S(=O)(=O)Nc2cc(SCCC(=O)O)c(O)c3ccccc23)ccc1F [Compound 5]
- cellular structure by SEM (P. gingivalis cells): alteration of the cellular structure
- MBC (P. gingivalis [1]): 254 µM (≈ 111 µg/mL)
- P. gingivalis cell viability (P. gingivalis [2]; 5x MIC, after two hours of exposure): no viable cell count; also recorded: complete elimination
- reduction of viable P. gingivalis cell count (P. gingivalis [2]; after 2 h of exposure): 5 log10 CFU/ml

- % inhibition of enzymatic activity at 3 mM [3, 7]: No inhibition at 3 mM
SMILES: O=C(O)c1sccc1S(=O)(=O)Nc1cccc2[nH]ncc12 [Compound 9]

- % inhibition of enzymatic activity at 3 mM [3, 7]: No inhibition at 3 mM
SMILES: O=C(O)c1cccc(S(=O)(=O)Nc2ccnc(Sc3ccccn3)c2)c1 [Compound 12]

- inhibition at 3000 µM [3, 7]: 17%
SMILES: Cc1n[nH]c(C)c1S(=O)(=O)Nc1cccc(NS(=O)(=O)c2ccccc2)c1 [Compound 14]

- inhibition at 3000 µM [3, 7]: 6%
SMILES: O=C(O)c1cccc(NS(=O)(=O)c2ccc(O)c(C(=O)O)c2)c1 [Compound 13]

- IC50 [3]: 356 ± 16 µM
- IC50 with addition of Triton-X 100 versus without [3]: no difference in activity
- inhibition at 3000 µM [3, 7]: ≥ 90%
- MIC (S. sanguinis): 3310 µM (≈ 1330 µg/mL)
- MIC (P. gingivalis [4]; [8]): 2820 µM (≈ 1130 µg/mL)
- MIC (P. gingivalis [4]; Porphyromonas gingivalis, bound stated): > 2000 µM
SMILES: O=C(O)CCC(=O)Nc1ccc(S(=O)(=O)Nc2cnc3ccccc3n2)cc1 [Compound 6]

- MBC to MIC ratio (P. gingivalis [1]): less than 4
- IC50 [3]: 157 ± 26 µM
- IC50 with addition of Triton-X 100 versus without [3]: no difference in activity
- inhibition at 3000 µM [3, 7]: ≥ 90%
- MIC (S. sanguinis): 1740 µM (≈ 784 µg/mL)
- S. sanguinis MIC relative to MIC of P. gingivalis (S. sanguinis): 7 ×
- MIC (P. gingivalis [4]; [8]): 250 µM (≈ 113 µg/mL)
SMILES: COc1ccc(S(=O)(=O)Nc2nc3ccccc3nc2Nc2cccc(C(=O)O)c2)cc1 [Compound 4]
- cellular structure by SEM (P. gingivalis cells): alteration of the cellular structure
- MBC (P. gingivalis [1]): 374 µM (≈ 168 µg/mL)
- P. gingivalis cell count (P. gingivalis [2]; 5x MIC, after six hours of treatment): maintained a low cell count
- reduction of viable P. gingivalis cell count (P. gingivalis [2]; within 6 h of exposure): 2 log10 CFU /ml

- IC50 [3]: 1160 ± 175 µM
- inhibition at 3000 µM [3, 7]: ≥ 90%
SMILES: CCC[C@@H]1CN(c2nc(C)ccc2C(=O)O)C[C@H]1C(=O)O [Compound 7]
